Test: Adsorption of drugs: recovery from supernatant by ESI-MS after incubation on glass, coated or uncoated polystyrene
Assay type: physicochemical
Settings: 100 nM drug, FIG. 4, samples stored in glass vials up to 3 days
Method: Different concentrations of the drugs were dissolved in 2 ml H2O from a stock solution of 0.5 mM in 50% acetonitrile/50% H2O, and added to coated or uncoated polystyrene containers (2 mL solution added to each circular container of diameter 33 mm) as well as glass containers acting as reference material. Drug concentrations up to 250 nM were investigated. At different time points 250 μL of supernatant was sampled for analysis. […] The samples were analyzed by ESI-MS using 50% H2O/50% MeOH/0.1% acetic acid running buffer (0.1 mL/min).
The effectiveness of the low-binding Bz+NHS-PEG coatings were probed by extended incubation of coated and uncoated polystyrene in 100 nM solutions of drugs spanning a wide range of hydrophobicity. Glass surfaces were included as reference to the polystyrene. The supernanants of the incubation solutions were sampled at different time points, and the drug concentrations determined by electrospray ionization mass spectrometry (ESI-MS) after addition of an internal standard.
The recovery was calculated as the ratio of the drug concentration in the supernatant to the initially added drug concentration.

Question: Which “adsorption on glass surface” value does the source give for CCCCc1oc2ccccc2c1C(=O)c1cc(I)c(OCCN(CC)CC)c(I)c1 [amiodarone] here?
Answer: large adsorption even on the glass surface
